Assay [1] deals with T1, Lysine-specific histone demethylase 1A (Homo sapiens, UniProt O60341). The experiment in a line: Inhibition of recombinant LSD1 (unknown origin) extracted from Escherichia coli BL21 (DE3) using H3K4me2 peptide as substrate in presence of […] by Amplex Red assay.
For assay [2], the target named is T1, Lysine-specific histone demethylase 1A. The experiment in a line: Inhibition of LSD1 in human MKN-45 cells assessed as accumulation of membrane PD-L1 at 2 uM incubated for 5 days. The format is cell-based. On the set-up: scale not given: the % may be the effect or the level left. The note with it: time 5.0 day.
Assay [3] deals with Lysine-specific histone demethylase 1A (Mus musculus) (UniProt Q6ZQ88). The experiment in a line: Inhibition of LSD1 in mouse MFC cells assessed as accumulation of membrane PD-L1 at 2 uM incubated for 5 days. The format is cell-based. On the set-up: scale not given: the % may be the effect or the level left. Conditions: time 5.0 day.

pIC50: −log10 of the molar value.

For `C=C1C(=O)OCC1C(O)c1cn(S(=O)(=O)c2ccccc2F)c2ccc(Cl)cc12` (configuration not stated), the pIC50 in assay [1] is 6.66.
On the same count and under the same terms, the figure for `C=C1C(=O)OCC1C(O)c1cn(S(=O)(=O)c2ccc(Br)cc2)c2ccc(Cl)cc12` (configuration not stated) is 5.94; for `C=C1C(=O)OCC1C(O)c1cn(S(=O)(=O)c2ccc(Cl)cc2Cl)c2ccc(Cl)cc12` (configuration not stated) it is 6.44.
On the same count and under the same terms, the figure for `C=C1C(=O)OCC1C(O)c1cn(S(=O)(=O)c2ccc(N3CCC(NC(=O)OC(C)(C)C)C3)c([N+](=O)[O-])c2)c2ccc(Cl)cc12` (configuration not stated) is 6.36.
Still for that read-out and setting: for `C=C1C(=O)OCC1C(O)c1cn(S(=O)(=O)CCC)c2ccc(Cl)cc12` (configuration not stated) the value was 5.18; for `C=C1C(=O)OCC1C(O)c1cn(S(=O)(=O)c2ccccc2[N+](=O)[O-])c2ccc(Cl)cc12` (configuration not stated), 6.12; for `C=C1C(=O)OCC1C(O)c1cn(S(=O)(=O)c2ccc(NC)c([N+](=O)[O-])c2)c2ccc(Cl)cc12` (configuration not stated), 7.05.
With `C=C1C(=O)OCC1C(O)c1cn(S(=O)(=O)c2ccc(Cl)cc2)c2ccc(Cl)cc12` (configuration not stated), in assay [1], the negative logarithm of the IC50 (pIC50) is 6.03.
On the same count and under the same terms, the figure for `C=C1C(=O)OCC1C(O)c1cn(S(=O)(=O)c2ccc(N3CCCC(NC(=O)OC(C)(C)C)C3)c([N+](=O)[O-])c2)c2ccc(Cl)cc12` (configuration not stated) is 6.15; for `C=C1C(=O)OCC1C(O)c1cn(S(=O)(=O)C2CC2)c2ccc(Cl)cc12` (configuration not stated) it is 5.25.
As for `C=C1C(=O)OCC1C(O)c1cn(S(=O)(=O)c2ccc(NCC(C)C)c([N+](=O)[O-])c2)c2ccc(Cl)cc12` (configuration not stated), in assay [1], the pIC50 is 6.88.
For `C=C1C(=O)OCC1C(O)c1cn(S(=O)(=O)c2ccc(N3CCN(CCO)CC3)c([N+](=O)[O-])c2)c2ccc(Cl)cc12` (configuration not stated), the pIC50 in assay [1] was 6.55.
Same read-out and setting: for `C=C1C(=O)OCC1C(O)c1cn(S(=O)(=O)c2ccc(N3CCN(CC)CC3)c([N+](=O)[O-])c2)c2ccc(Cl)cc12` (configuration not stated) the value was 6.54.
As to `N[C@H]1CC[C@H](N[C@@H]2C[C@H]2c2ccccc2)CC1`, the Activity in assay [2] was 48.5%; in assay [3], 40.4%.
For the molecule `C=C1C(=O)OCC1C(O)c1cn(S(=O)(=O)c2ccc(N(CCC)CCC)c([N+](=O)[O-])c2)c2ccc(Cl)cc12` (configuration not stated), the negative-log IC50 (pIC50) in assay [1] was 5.47.
Same read-out and setting: the figure for `C=C1C(=O)OCC1C(O)c1cn(S(=O)(=O)c2ccccc2)c2ccc(Cl)cc12` (configuration not stated) is 5.95; for `C=C1C(=O)OCC1C(O)c1cn(S(=O)(=O)c2c(Cl)cccc2Cl)c2ccc(Cl)cc12` (configuration not stated) it is 6.01.
On the same count and under the same terms, the figure for `C=C1C(=O)OC/C1=C\c1cn(S(=O)(=O)c2ccc(Cl)cc2)c2ccc(Cl)cc12` is under 5.00; for `O=S(=O)(c1ccc(Cl)cc1)n1cc(CNC2CC2)c2cc(Cl)ccc21` it is under 5.00.
The same measure, in the same setting: the figure for `O=S(=O)(c1ccc(Cl)cc1)n1cc(CNCC2CC2)c2cc(Cl)ccc21` is under 5.00; for `C=C1C(=O)OCC1C(O)c1cn(S(=O)(=O)c2ccc(N3CCCCC3)c([N+](=O)[O-])c2)c2ccc(Cl)cc12` (configuration not stated) it is 5.67.
`C=C1C(=O)OCC1C(=O)c1cn(S(=O)(=O)c2ccc(Cl)cc2)c2ccc(Cl)cc12` (configuration not stated): the pIC50 in assay [1] is under 5.00.
Same read-out and setting: for `C=C1C(=O)OCC1C(O)c1ccn(S(=O)(=O)c2ccc(Cl)cc2)c1` (configuration not stated) the value was under 5.00.
On the same count and under the same terms, for `C=C1C(=O)OCC1C(O)c1cn(S(=O)(=O)c2cccc(C(F)(F)F)c2)c2ccc(Cl)cc12` (configuration not stated) the value was 6.67; for `C=C1C(=O)OCC1C(O)c1ccn(S(=O)(=O)c2ccc(C)cc2)c1` (configuration not stated), under 5.00.
On the same count and under the same terms, for `C=C1C(=O)OCC1C(O)c1cn(S(=O)(=O)c2cccc([N+](=O)[O-])c2)c2ccc(Cl)cc12` (configuration not stated) the value was 6.97.
Take `C=C1C(=O)OCC1C(O)c1cn(S(=O)(=O)c2ccc(Cl)c([N+](=O)[O-])c2)c2ccc(Cl)cc12` (configuration not stated): in assay [1], the pIC50 is 7.00.
Take `C=C1C(=O)OCC1C(O)c1cn(S(=O)(=O)c2ccccc2Br)c2ccc(Cl)cc12` (configuration not stated): the negative-log IC50 (pIC50) in assay [1] was 6.79.
On the same count and under the same terms, the figure for `C=C1C(=O)OCC1C(O)c1cn(S(=O)(=O)c2ccc(Cl)c(N)c2)c2ccc(Cl)cc12` (configuration not stated) is under 5.30; for `C=C1C(=O)OCC1C(O)c1cn(S(=O)(=O)c2ccc(CBr)cc2)c2ccc(Cl)cc12` (configuration not stated) it is 6.03.
The same measure, in the same setting: for `C=C1C(=O)OCC1C(O)c1cn(S(=O)(=O)c2ccc(CNCc3ccc(Cl)cc3)cc2)c2ccc(Cl)cc12` (configuration not stated) the value was 5.63; for `C=C1C(=O)OCC1C(O)c1cn(S(=O)(=O)c2ccc(N3CCN(C(=O)OC(C)(C)C)CC3)c([N+](=O)[O-])c2)c2ccc(Cl)cc12` (configuration not stated), 6.34.
Same read-out and setting: the figure for `C=C1C(=O)OCC1C(O)c1cn(S(=O)(=O)c2ccccc2Cl)c2ccc(Cl)cc12` (configuration not stated) is 6.44; for `C=C1C(=O)OCC1C(O)c1cn(S(=O)(=O)c2ccc(NCCC)c([N+](=O)[O-])c2)c2ccc(Cl)cc12` (configuration not stated) it is 6.18.
`C=C1C(=O)OCC1C(O)c1cn(S(=O)(=O)c2ccc(N3CCCC3)c([N+](=O)[O-])c2)c2ccc(Cl)cc12` (configuration not stated): the negative-log IC50 (pIC50) in assay [1] was 5.61.
Same read-out and setting: for `C=C1C(=O)OCC1C(O)c1cn(S(=O)(=O)c2ccccc2C)c2ccc(Cl)cc12` (configuration not stated) the value was 6.58; for `C=C1C(=O)OCC1C(O)c1cn(S(=O)(=O)c2cccc(Cl)c2)c2ccc(Cl)cc12` (configuration not stated), 6.13; for `C=C1C(=O)OCC1C(O)c1cn(S(=O)(=O)c2ccc([N+](=O)[O-])cc2)c2ccc(Cl)cc12` (configuration not stated), 5.86.
Turning to `C=C1C(=O)OCC1C(O)c1cn(S(=O)(=O)c2ccc(CN3CCOCC3)cc2)c2ccc(Cl)cc12` (configuration not stated), in assay [1], the pIC50 was 6.22.
For the molecule `C=C1C(=O)OCC1C(O)c1cn(S(=O)(=O)c2ccc(C(F)(F)F)cc2)c2ccc(Cl)cc12` (configuration not stated), the negative-log IC50 (pIC50) in assay [1] is 5.84.
Consider `C=C1C(=O)OCC1C(O)c1ccn(S(=O)(=O)c2ccc(Br)cc2)c1` (configuration not stated), for which, in assay [1], the negative-log IC50 (pIC50) was under 5.00.
Same read-out and setting: the figure for `C=C1C(=O)OCC1C(O)c1cn(S(=O)(=O)c2ccc(F)cc2)c2ccc(Cl)cc12` (configuration not stated) is 5.87; for `C=C1C(=O)OCC1C(O)c1cn(S(=O)(=O)c2ccc(OC(F)(F)F)cc2)c2ccc(Cl)cc12` (configuration not stated) it is 5.85.
Still for that read-out and setting: for `C=C1C(=O)OCC1C(O)c1cn(S(C)(=O)=O)c2ccc(Cl)cc12` (configuration not stated) the value was 5.04; for `C=C1C(=O)OCC1C(O)c1cn(S(=O)(=O)c2ccc(N3CCCN(C(=O)OC(C)(C)C)CC3)c([N+](=O)[O-])c2)c2ccc(Cl)cc12` (configuration not stated), 5.30.
On the same count and under the same terms, for `C=C1C(=O)OCC1C(O)c1cn(S(=O)(=O)c2ccc(CN3CCN(C(=O)OC(C)(C)C)CC3)cc2)c2ccc(Cl)cc12` (configuration not stated) the value was 5.93; for `C=C1C(=O)OCC1C(O)c1cn(S(=O)(=O)c2ccc(N3CCN(C)CC3)c([N+](=O)[O-])c2)c2ccc(Cl)cc12` (configuration not stated), 6.33; for `C=C1C(=O)OCC1C(O)c1cn(S(=O)(=O)c2ccc(OC)cc2)c2ccc(Cl)cc12` (configuration not stated), 6.07.
For `C=C1C(=O)OCC1C(O)c1cn(S(=O)(=O)c2ccc(Cl)c(Cl)c2)c2ccc(Cl)cc12` (configuration not stated), the pIC50 in assay [1] is 6.24.
Turning to `C=C1C(=O)OCC1C(O)c1cn(S(=O)(=O)c2ccc(F)c(C(F)(F)F)c2)c2ccc(Cl)cc12` (configuration not stated), the negative logarithm of the IC50 (pIC50) in assay [1] is 6.18.
Same read-out and setting: for `C=C1C(=O)OCC1C(O)c1cn(S(=O)(=O)c2ccc(N3C[C@@H]4C[C@H]3CN4C(=O)OC(C)(C)C)c([N+](=O)[O-])c2)c2ccc(Cl)cc12` (some centres not stated) the value was 5.48.

Usually pIC50 stands for the negative decadic logarithm of the IC50, by convention in mol/L.

(Values after ChEMBL document CHEMBL6134893, “The Exploration of Indole-Based LSD1-Targeted Inhibitors for Enhanced Immune Response in Gastric Cancer via the PD-L1/PD-1 Axis” (J Med Chem, 2025).)
